{
  "source": "patent US7968530B2",
  "about": "(priority 2005, dated 2011)",
  "key": {"[1]": {"tested_on": "Phytophthora infestans", "format": "in vivo"}, "[2]": {"tested_on": "Plasmopara viticola", "assay": "Preventive fungicidal activity against peronospora of vines, sprayed vine leaves (Example 7)", "format": "in vivo", "conditions": "7-day preventive, vine cv. Dolcetto, scale 0 (completely infected) to 100 (healthy plant); for Activity 500 ppm: 500 ppm as equivalent phosphorous acid; for Activity 1000 ppm: 1000 ppm as equivalent phosphorous acid", "protocol": "Determination of the Fungicidal Activity Against Peronospora of Vines (Plasmopara viticola).\nVine leaves (cultivar Dolcetto), grown in vases in a conditioned environment (20±1° C., 70% relative humidity) are treated by spraying both sides of the leaves with compounds 1 and 2, dispersed in a hydroacetone solution at 20% by volume in acetone.\nAfter remaining 24 hours in a conditioned environment, the plants were sprayed on both sides of the leaves with an aqueous suspension of conidia of Plasmopara viticola (20,000 conidia per cm^3).\nThe plants are kept in a humidity saturated environment at 21° C. for the incubation period of the fungus.\nAt the end of this period (7 days), the fungicidal activity is evaluated according to an evaluation percentage scale from 0 (completely infected plant) to 100 (healthy plant)."}, "[3]": {"tested_on": "Plasmopara tabacina", "assay": "1-day curative fungicidal activity of fungicidal mixtures against peronospora of tobacco (Example 11)", "format": "in vivo", "method": "Determination of the Fungicidal Activity of Fungicidal Mixtures Against Peronospora of Tobacco (Plasmopara tabacina).\nLeaves of tobacco plants (cultivar Barley), grown in vases in a conditioned environment (20±1° C.), 70% relative humidity) were infected with an aqueous solution of spores of Plasmopara tabacina (200,000 conidia per cm^3).\n(§1) After remaining 24 hours in a conditioned environment, both sides of the leaves were sprayed with the fungicidal mixtures under examination dissolved in a hydroacetone solution at 20% of acetone (vol./vol.).\nAfter drying, the plants were transferred for the incubation period of the fungus (6 days) to a conditioned environment at 70% relative humidity and 24° C."}, "[4]": {"tested_on": "Phytophthora infestans", "conditions": "1-day curative, potato Primura, scale 100 healthy to 0 infected"}, "[5]": {"tested_on": "Plasmopara viticola", "assay": "1-day curative fungicidal activity of fungicidal mixtures against peronospora of vines (Example 10)", "format": "in vivo", "method": "Leaves of vines (cultivar Dolcetto), grown in vases in a conditioned environment (20±1° C.), 70% relative humidity) were infected with an aqueous suspension of spores of Plasmopara viticola (200,000 conidia per cm^3).\nas §1\nAfter drying, the plants were transferred for the incubation period of the fungus (6 days) to a conditioned at 70% relative humidity and 24° C."}, "[6]": {"conditions": "1575 ppm as equivalent phosphorous acid"}, "[7]": {"conditions": "compound alone at 1575 ppm as equivalent phosphorous acid, 1-day curative, potato, scale 0-100"}},
  "note": "Like-named read-outs stand apart in the source and are kept apart here.",
  "data": [
    {"compound": "CN(C)CCCO", "note": "[3-dimethylamine-1-propanol]", "values": [
      {"measurement": "Activity (y)", "setting": "[1]; in vivo", "result": 25}
    ]},
    {"compound": "C[N+](C)(C)CCO.O=C([O-])O", "note": "[Choline bicarbonate]", "values": [
      {"measurement": "Activity 500 ppm", "setting": "[2]", "result": 75},
      {"measurement": "Activity 1000 ppm", "setting": "[2]", "result": 84}
    ]},
    {"compound": "C[N+](C)(C)CCO.[Cl-]", "note": "[Choline chloride]", "values": [
      {"measurement": "Activity (y)", "setting": "[3]; compound alone at 2047 ppm, 1-day curative, tobacco, scale 0-100", "result": 10},
      {"measurement": "Activity (y)", "setting": "[1]; compound alone at 2730 ppm, 1-day curative, potato, scale 0-100", "result": 20},
      {"measurement": "Activity 500 ppm", "setting": "[2]", "result": 35},
      {"measurement": "Activity 1000 ppm", "setting": "[2]", "result": 57},
      {"measurement": "Activity", "setting": "[4]; 2690 ppm (quantity of choline contained in Compound No 2)", "result": "15 (2690 ppm*)"},
      {"measurement": "Activity (y)", "setting": "[5]; compound alone at 2047 ppm, 1-day curative, vine, scale 0-100", "result": 20}
    ]},
    {"compound": "O=[PH]([O-])[O-].[K+].[K+]", "note": "[Compound K2HPO3, K2HPO3, reference compound]", "values": [
      {"measurement": "Activity 500 ppm", "setting": "[2]", "result": 45},
      {"measurement": "Activity 1000 ppm", "setting": "[2]", "result": 80},
      {"measurement": "Activity", "setting": "[4]; [6]", "result": "40 (1575 ppm**)"}
    ]},
    {"compound": "CN(C)CCO", "note": "[N,N-dimethylethanolamine]", "values": [
      {"measurement": "Activity (y)", "setting": "[3]; in vivo", "result": 5},
      {"measurement": "Activity (y)", "setting": "[1]; in vivo", "result": 30},
      {"measurement": "Activity (y)", "setting": "[5]; in vivo", "result": 25}
    ]},
    {"compound": "Acid Choline Phosphite [Compound 2]", "values": [
      {"measurement": "Activity (y)", "setting": "[1]; [7]", "result": 65},
      {"measurement": "Activity 500 ppm", "setting": "[2]", "result": 85},
      {"measurement": "Activity 1000 ppm", "setting": "[2]", "result": 95},
      {"measurement": "Activity", "setting": "[4]; [6]", "result": "65 (1575 ppm**)"},
      {"measurement": "Activity", "setting": "[4]; 1575 ppm as equivalent phosphorous acid, […]", "result": 65}
    ]},
    {"compound": "Neutral Choline Phosphite [Compound 1]", "values": [
      {"measurement": "Activity (y)", "setting": "[1]; [7]", "result": 65},
      {"measurement": "Activity 500 ppm", "setting": "[2]", "result": 90},
      {"measurement": "Activity 1000 ppm", "setting": "[2]", "result": 100}
    ]}
  ]
}
